One molecule from paper PMC11209911 (ACS Omega, 2024) can be followed below.

The target in the assay is α-glucosidase. Briefly: α-glucosidase inhibitor screening kit. In kind it is biochemical.

In general, IC50 refers to the concentration that inhibits the measured activity by half. Read a low IC50 as greater potency in that assay. The molecule `C=C/C=C(\C)CC[C@@H]1C[C@@H](O)CC(=O)O1` [30b, (4R,6R)-4-Hydroxy-6-((E)-3-methylhexa-3,5-dien-1-yl)tetrahydro-2H-pyran-2-one] registered an IC50 of 66.1 µM.
